The term HC50 denotes the concentration that lyses half of the red blood cells. Read a low HC50 as more damage to red cells.

Square brackets hold non-standard residues; d marks the D form. Peptide text beside a SMILES is read from it. Gly(N(CH2)2(3-indolyl)) = O=C(O)CNCCc1c[nH]c2ccccc12; Nspe = C[C@H](NCC(=O)O)c1ccccc1; Nphe = O=C(O)CNCc1ccccc1; Nlys = NCCCCNCC(=O)O

In series [1] the test system is rat erythrocytes. The series is described as follows: Hemolysis assay. The series is classed as cell-based. The conditions noted are these: for HC10 / HC50: pH 7.4. As for the experimental part:
The hemolysis assay was performed using rat erythrocytes in phosphate‐buffered saline (PBS), as reported by Mendes et al.^[ [45] ^] Animal studies were approved by the Laboratory Animal Resource Center of Gwangju Institute of Science and Technology. Blood was collected from a 13‐week‐old male Sprague‐Dawley rat in tubes containing 158 USP units of sodium heparin to prevent coagulation and centrifuged at 1000 rpm for 10 min at 4 °C. Plasma was removed carefully and erythrocyte pellets were washed three times with PBS (35 mM phosphate, pH 7.4, 150 mM NaCl). Next, 150 µL of a 10% erythrocyte suspension was mixed with 50 µL of serially diluted peptoids (0–100 µM) in a 96‐well black polypropylene plates (Greiner, Kremsmünster, Austria). Untreated erythrocytes and cells lysed by the addition of 1% Triton X‐100 were used as negative and positive controls, respectively, with the 1% Triton X‐100‐treated wells being accepted to represent 100% hemolysis. The reaction mixture was incubated at 37 °C for 60 min, and the plates were centrifuged at 1000 rpm for 15 min. Aliquots (150 µL) of the supernatant were transferred to fresh 96‐well plates, and the absorbance of each well was measured at 540 nm using a microplate reader. Hemolysis induced by peptoids was calculated as the percentage value of Triton X‐100 lysed cells. The percentage of hemolysis by the extracts was calculated according to the following formula: % hemolysis = [(Abs 540 nm in the peptoid solution – Abs 540 nm in PBS) / (Abs 540 nm in 1% Triton X‐100 – Abs 540 nm in PBS)] × 100. HC10 and HC50 were defined as the peptoid concentrations that caused 10% and 50% hemolysis in rat erythrocytes, respectively. H max indicates the percentage of hemolysis observed at the maximum peptoid concentration, 100 µM throughout this study.

The nature of series [2]: Analytical reversed-phase HPLC elution (hydrophobicity). The series is classed as physicochemical. Conditions: Table S1; analytical RP-HPLC, SunFire C18, water/ACN + 0.1% TFA, 5 to 100% B linear over 30 min, 1 mL/min, UV 220 nm; approximate comparison of hydrophobicity. How it is done: 7. HPLC chromatogram, retention time (tR), and LC-MS data
HPLC analysis of peptoids was conducted using a Waters HPLC system equipped with a Waters 2489 UV/Visible Detector, 1525 Binary HPLC Pump, 2707 Autosampler, 5CH column oven, and a C18 column (SunFire C18, 4.6 × 250 mm, 5 μm; Waters Corp., Milford, MA, USA). The mobile phases were deionized water (A, with + 0.1% TFA) and acetonitrile (ACN; B, with + 0.1% TFA). Before sample injection, the column was conditioned with 5% B for 10 min. Then, the mobile phase was maintained at 5% B for 2 min, followed by increasing B to 100% using a linear gradient over 30 min. At this point, 100% B was maintained for 5 additional min. The flow rate of the mobile phase was 1 mL/min. The sample was detected by measuring absorbance at 220 nm. […]

As for `C[C@@H](c1ccccc1)N(CC(=O)N(CCCCN)CC(=O)N(CC(=O)N(CC(=O)N(CCCCN)CC(=O)N(CCc1c[nH]c2ccccc12)CC(=O)N(CCc1c[nH]c2ccccc12)CC(=O)N(CCCCN)CC(=O)N(CCc1c[nH]c2ccccc12)CC(=O)N(CCc1c[nH]c2ccccc12)CC(N)=O)[C@@H](C)c1ccccc1)[C@@H](C)c1ccccc1)C(=O)CN(C(=O)CNCCCCN)[C@@H](C)c1ccccc1` [peptoid 19] (H-[Nlys][Nspe][Nspe][Nlys][Nspe][Nspe][Nlys][Gly(N(CH2)2(3-indolyl))][Gly(N(CH2)2(3-indolyl))][Nlys][Gly(N(CH2)2(3-indolyl))][Gly(N(CH2)2(3-indolyl))]-NH2), in series [1], the “Hmax (100 µM)” value was determined as 101.5±1.3%, the HC10 turned out to be 3.8 µM and the concentration for 50% haemolysis (HC50) is reported as 12.5 µM. Also, the HPLC elution in series [2] was 52.8 % MeCN.

As for `C[C@@H](c1ccccc1)N(CC(=O)N(CCCCN)CC(=O)N(CCc1c[nH]c2ccccc12)CC(=O)N(CCc1c[nH]c2ccccc12)CC(N)=O)C(=O)CN(CCCCN)C(=O)CN(CCCCN)C(=O)CN(C(=O)CN(C(=O)CN(CCCCN)C(=O)CN(Cc1ccccc1)C(=O)CN(Cc1ccccc1)C(=O)CNCCCCN)[C@@H](C)c1ccccc1)[C@@H](C)c1ccccc1` [peptoid 41] (H-[Nlys][Nphe][Nphe][Nlys][Nspe][Nspe][Nlys][Nlys][Nspe][Nlys][Gly(N(CH2)2(3-indolyl))][Gly(N(CH2)2(3-indolyl))]-NH2), in series [1], the “Hmax (100 µM)” value is reported as 7.1±0.1%, the HC10 is given as greater than 100 µM and the HC50 is given as greater than 100 µM. In addition, the HPLC elution in series [2] was determined as 47.5 % MeCN.

Take `C[C@@H](c1ccccc1)N(CC(N)=O)C(=O)CN(CCCCN)C(=O)CN(CCCCN)C(=O)CN(C(=O)CN(C(=O)CN(CCCCN)C(=O)CN(CCc1c[nH]c2ccccc12)C(=O)CN(C(=O)CN(CCCCN)C(=O)CN(C(=O)CN(C(=O)CNCCCCN)[C@@H](C)c1ccccc1)[C@@H](C)c1ccccc1)[C@@H](C)c1ccccc1)[C@@H](C)c1ccccc1)[C@@H](C)c1ccccc1` [peptoid 24]: in series [1], the “Hmax (100 µM)” value was 1.5±0.0%, the HC10 is on record as greater than 100 µM and the 50% haemolytic concentration (HC50) is on record as greater than 100 µM. In series [2], the HPLC elution was 49.4 % MeCN.

On to `C[C@@H](c1ccccc1)N(CC(=O)N(CCCCN)CC(=O)N(CC(=O)N(CC(=O)N(CCCCN)CC(=O)N(CCCCN)CC(=O)N(CC(=O)N(CCCCN)CC(=O)N(CCc1c[nH]c2ccccc12)CC(=O)N(CCc1c[nH]c2ccccc12)CC(N)=O)Cc1ccccc1)[C@@H](C)c1ccccc1)[C@@H](C)c1ccccc1)C(=O)CN(C(=O)CNCCCCN)[C@@H](C)c1ccccc1` [peptoid 39] (H-[Nlys][Nspe][Nspe][Nlys][Nspe][Nspe][Nlys][Nlys][Nphe][Nlys][Gly(N(CH2)2(3-indolyl))][Gly(N(CH2)2(3-indolyl))]-NH2), for which, in series [1], the “Hmax (100 µM)” value was 10.2±0.3%, the HC10 is 100 µM and the 50% haemolytic concentration (HC50) is given as greater than 100 µM. The HPLC elution in series [2] is given as 47.8 % MeCN.

Take `C[C@@H](c1ccccc1)N(CC(=O)N(CCCCN)CC(=O)N(CC(=O)N(CC(=O)N(CCCCN)CC(=O)N(CC(=O)N(CC(=O)N(CCCCN)CC(=O)N(CCCCN)CC(N)=O)[C@@H](C)c1ccccc1)[C@@H](C)c1ccccc1)[C@@H](C)c1ccccc1)[C@@H](C)c1ccccc1)C(=O)CN(C(=O)CNCCCCN)[C@@H](C)c1ccccc1` [peptoid 49] (H-[Nlys][Nspe][Nspe][Nlys][Nspe][Nspe][Nlys][Nspe][Nspe][Nlys][Nlys]-NH2): in series [1], the “Hmax (100 µM)” value was 0.3±0.3%, the HC10 is reported as greater than 100 µM and the HC50 was greater than 100 µM. The HPLC elution in series [2] was found to be 46.6 % MeCN.

As for `C[C@@H](c1ccccc1)N(CC(=O)N(CCCCN)CC(=O)N(CC(=O)N(CC(=O)N(CCCCN)CC(=O)N(CC(=O)N(CC(=O)N(CCCCN)CC(=O)N(CCc1c[nH]c2ccccc12)CC(=O)N(CCc1c[nH]c2ccccc12)CC(N)=O)[C@@H](C)c1ccccc1)[C@@H](C)c1ccccc1)[C@@H](C)c1ccccc1)[C@@H](C)c1ccccc1)C(=O)CN(CCCCN)C(=O)CNCCCCN` [peptoid 31] (H-[Nlys][Nlys][Nspe][Nlys][Nspe][Nspe][Nlys][Nspe][Nspe][Nlys][Gly(N(CH2)2(3-indolyl))][Gly(N(CH2)2(3-indolyl))]-NH2), in series [1], the “Hmax (100 µM)” value worked out at 18.4±5.0%, the HC10 is listed as 59.0 µM and the HC50 was greater than 100 µM. Further, the HPLC elution in series [2] was determined as 50.2 % MeCN.

As for `C[C@@H](c1ccccc1)N(CC(N)=O)C(=O)CN(C(=O)CN(CCCCN)C(=O)CN(CCc1c[nH]c2ccccc12)C(=O)CN(CCc1c[nH]c2ccccc12)C(=O)CN(CCCCN)C(=O)CN(C(=O)CN(C(=O)CN(CCCCN)C(=O)CN(C(=O)CN(C(=O)CNCCCCN)[C@@H](C)c1ccccc1)[C@@H](C)c1ccccc1)[C@@H](C)c1ccccc1)[C@@H](C)c1ccccc1)[C@@H](C)c1ccccc1` [peptoid 12], in series [1], the “Hmax (100 µM)” value is reported as 87.4±2.4%, the HC10 amounted to 29.1 µM and the HC50 amounted to 65.2 µM. For the same compound, in series [2], the HPLC elution is 55.9 % MeCN.

For the compound `C[C@@H](c1ccccc1)N(CC(=O)N(CCc1c[nH]c2ccccc12)CC(=O)N(CCCCN)CC(=O)N(CC(=O)N(CCc1c[nH]c2ccccc12)CC(=O)N(CCCCN)CC(=O)N(CC(=O)N(CCc1c[nH]c2ccccc12)CC(=O)N(CCCCN)CC(=O)N(CC(=O)N(CCc1c[nH]c2ccccc12)CC(N)=O)[C@@H](C)c1ccccc1)[C@@H](C)c1ccccc1)[C@@H](C)c1ccccc1)C(=O)CNCCCCN` [peptoid 22] (H-[Nlys][Nspe][Gly(N(CH2)2(3-indolyl))][Nlys][Nspe][Gly(N(CH2)2(3-indolyl))][Nlys][Nspe][Gly(N(CH2)2(3-indolyl))][Nlys][Nspe][Gly(N(CH2)2(3-indolyl))]-NH2), in series [1], the “Hmax (100 µM)” value is given as 108.6±1.1%, the HC10 is recorded as 6.9 µM and the HC50 is given as 19.4 µM. Besides, in series [2], the HPLC elution stood at 54.1 % MeCN.

Regarding `C[C@@H](c1ccccc1)N(CC(N)=O)C(=O)CN(C(=O)CN(CCCCN)C(=O)CN(C(=O)CN(CCCCN)C(=O)CN(CCCCN)C(=O)CN(CCc1c[nH]c2ccccc12)C(=O)CN(C(=O)CN(CCCCN)C(=O)CN(C(=O)CN(C(=O)CNCCCCN)[C@@H](C)c1ccccc1)[C@@H](C)c1ccccc1)[C@@H](C)c1ccccc1)[C@@H](C)c1ccccc1)[C@@H](C)c1ccccc1` [peptoid 25], in series [1], the “Hmax (100 µM)” value is reported as 2.7±0.4%, the HC10 is listed as greater than 100 µM and the HC50 is on record as greater than 100 µM. Besides, in series [2], the HPLC elution came out at 50.8 % MeCN.

As to `C[C@@H](c1ccccc1)N(CC(=O)N(CCc1c[nH]c2ccccc12)CC(=O)N(CCCCN)CC(=O)N(CC(=O)N(CC(=O)N(CCCCN)CC(=O)N(CC(=O)N(CC(=O)N(CCCCN)CC(=O)N(CC(=O)N(CCc1c[nH]c2ccccc12)CC(N)=O)[C@@H](C)c1ccccc1)[C@@H](C)c1ccccc1)[C@@H](C)c1ccccc1)[C@@H](C)c1ccccc1)[C@@H](C)c1ccccc1)C(=O)CNCCCCN` [peptoid 16] (H-[Nlys][Nspe][Gly(N(CH2)2(3-indolyl))][Nlys][Nspe][Nspe][Nlys][Nspe][Nspe][Nlys][Nspe][Gly(N(CH2)2(3-indolyl))]-NH2), in series [1], the “Hmax (100 µM)” value worked out at 100.3±1.7%, the HC10 is 13.8 µM and the 50% haemolytic concentration (HC50) is reported as 25.0 µM. Further, the HPLC elution in series [2] is given as 54.7 % MeCN.

As for `C[C@@H](c1ccccc1)N(CC(N)=O)C(=O)CN(CCCCN)C(=O)CN(C(=O)CN(CCCCN)C(=O)CN(CCCCN)C(=O)CN(C(=O)CN(C(=O)CN(CCCCN)C(=O)CN(C(=O)CN(C(=O)CN(CCCCN)C(=O)CN(C(=O)CNCCc1c[nH]c2ccccc12)[C@@H](C)c1ccccc1)[C@@H](C)c1ccccc1)[C@@H](C)c1ccccc1)[C@@H](C)c1ccccc1)[C@@H](C)c1ccccc1)[C@@H](C)c1ccccc1` [peptoid 62], in series [1], the “Hmax (100 µM)” value turned out to be 44.8±8.1%, the HC10 came to 36.2 µM and the HC50 is reported as greater than 100 µM. Further, the HPLC elution in series [2] came out at 50.8 % MeCN.

Source of the values: PMC10460844, “Real‐Time Monitoring of Multitarget Antimicrobial Mechanisms of Peptoids Using Label‐Free Imaging with Optical Diffraction Tomography” (Advanced Science, 2023).
